Assay results reported in PubChem BioAssay (NCI).
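GI50 = concentration required for 50% inhibition of growth. TGI is the concentration that stops growth completely.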

Experiments:
Assay in all cases: inhibition of tumour cell growth, NCI panel, 384-well format
[1] = tested on: HOP-62 NSCLC
[2] = tested on: HOP-92 NSCLC
[3] = tested on: SNB-19 CNS
[4] = tested on: TK-10 renal
[5] = tested on: K-562 leukemia
[6] = tested on: M14 melanoma
[7] = tested on: COLO 205 colon
[8] = tested on: U251 glioblastoma
[9] = tested on: CAKI-1 renal
[10] = tested on: ACHN renal
[11] = tested on: MOLT-4 leukemia
[12] = tested on: MDA-MB-435 melanoma
[13] = tested on: BT-549 breast

SMILES	GI50 [1]	TGI [1]	GI50 [2]	TGI [2]	GI50 [3]	TGI [3]	GI50 [4]	TGI [4]	GI50 [5]	TGI [5]	GI50 [6]	TGI [6]	GI50 [7]	TGI [7]	GI50 [8]	TGI [8]	GI50 [9]	TGI [9]	GI50 [10]	TGI [10]	other results
COc1cc(C)[nH]c(=O)c1CN1CCc2c(Cl)cc([C@H](OC)C3COC3)c(Cl)c2C1=O	> 100 µM	> 100 µM	> 100 µM	> 100 µM	> 100 µM	> 100 µM	> 100 µM	> 100 µM	> 100 µM	> 100 µM	> 100 µM	> 100 µM	> 100 µM	> 100 µM	> 100 µM	> 100 µM	> 100 µM	> 100 µM	> 100 µM	> 100 µM	GI50 [11]: > 100 µM; TGI [11]: > 100 µM; GI50 [12]: > 100 µM; TGI [12]: > 100 µM; GI50 [13]: > 100 µM; TGI [13]: > 100 µM
C[C@@H](Oc1cc(NS(=O)(=O)N2CCC2)nc(SCc2cccc(F)c2F)n1)[C@@H](O)CO	> 100 µM	> 100 µM	> 88.1 µM	> 100 µM	> 100 µM	> 100 µM	> 66 µM	> 100 µM	> 68.3 µM	> 100 µM	> 95.7 µM	> 100 µM	> 89.8 µM	> 100 µM	> 100 µM	> 100 µM	> 60.8 µM	> 100 µM	> 100 µM	> 100 µM	GI50 [11]: > 61.8 µM; TGI [11]: > 100 µM; GI50 [12]: > 100 µM; TGI [12]: > 100 µM; GI50 [13]: > 71.9 µM; TGI [13]: > 100 µM
